Reference: ChEMBL document CHEMBL1201862, “PubChem BioAssay data set” (2004)
Calls of active or inactive are those of the source.

Legend:
[1] = viability loss in Vero cells – cytotoxicity control for Vif-APOBEC3G degradation inhibitor project, dose response (AID 1117358); format: functional; details: Vero
[2] = molecular target: T1, Ubiquitin-conjugating enzyme E2 N (Homo sapiens, UniProt P61088); format: functional;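 further: Dose-response confirmation in a TR-FRET assay detecting UBC13-driven polyubiquitin chain formation, inhibition measured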
T1 sequence (P61088 whole entry): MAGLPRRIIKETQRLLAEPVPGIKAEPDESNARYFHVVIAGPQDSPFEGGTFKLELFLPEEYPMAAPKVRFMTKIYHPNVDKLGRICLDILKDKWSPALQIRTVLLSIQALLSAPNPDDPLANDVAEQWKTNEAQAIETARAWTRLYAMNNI

Protein RecA = molecular target: T2, Protein RecA (Mycobacterium tuberculosis, UniProt P9WHJ3); assay: Fluorescence Cell-Free Homogeneous Dose Retest to Identify Inhibitors of RecA-Intein Splicing Activity. [Related pubchem assays (depositor defined):AID2097, AID2223, AID489010, AID492950]; format: functional
T2 sequence (P9WHJ3 whole entry): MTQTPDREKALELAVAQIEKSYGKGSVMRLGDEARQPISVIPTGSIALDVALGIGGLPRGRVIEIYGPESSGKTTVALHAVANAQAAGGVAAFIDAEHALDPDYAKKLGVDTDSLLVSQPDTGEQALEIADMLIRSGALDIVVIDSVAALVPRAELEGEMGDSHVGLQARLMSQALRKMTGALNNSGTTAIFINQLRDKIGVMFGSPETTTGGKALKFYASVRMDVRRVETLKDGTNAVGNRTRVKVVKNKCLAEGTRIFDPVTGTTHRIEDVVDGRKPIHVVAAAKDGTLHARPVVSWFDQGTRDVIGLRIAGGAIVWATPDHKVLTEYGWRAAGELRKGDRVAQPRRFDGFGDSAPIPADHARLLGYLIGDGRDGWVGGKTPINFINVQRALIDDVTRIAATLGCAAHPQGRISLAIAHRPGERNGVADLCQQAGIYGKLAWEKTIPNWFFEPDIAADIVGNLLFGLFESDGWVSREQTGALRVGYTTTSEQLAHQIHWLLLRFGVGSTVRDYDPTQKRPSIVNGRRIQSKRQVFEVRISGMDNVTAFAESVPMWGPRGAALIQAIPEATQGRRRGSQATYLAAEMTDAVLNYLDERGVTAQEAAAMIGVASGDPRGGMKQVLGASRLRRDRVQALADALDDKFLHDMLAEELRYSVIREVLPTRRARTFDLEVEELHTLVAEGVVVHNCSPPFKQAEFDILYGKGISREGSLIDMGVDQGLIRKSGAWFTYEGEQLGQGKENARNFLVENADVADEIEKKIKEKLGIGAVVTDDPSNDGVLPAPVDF

[3] = HIV-1 Vif–A3G interaction blockers – biochemical, TR-FRET, GST-Vif 1-94, biotin-A3G peptide, dose response retest, primary screen (AID 1117319); format: functional;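 further: TR-FRET signal of purified GST-Vif binding a biotinylated A3G peptide; inhibitors lower the FRET signal by blocking Vif and A3G binding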
Leucine aminopeptidase = molecular target: T3, Leucine aminopeptidase (Plasmodium falciparum 3D7, UniProt Q8IL11); assay: P. falciparum M17LAP inhibitors, primary screen, biochemical, fluorogenic H-Leu-NHMec substrate, 1536-well (AID 1619); format: functional
T3 sequence (Q8IL11 whole entry): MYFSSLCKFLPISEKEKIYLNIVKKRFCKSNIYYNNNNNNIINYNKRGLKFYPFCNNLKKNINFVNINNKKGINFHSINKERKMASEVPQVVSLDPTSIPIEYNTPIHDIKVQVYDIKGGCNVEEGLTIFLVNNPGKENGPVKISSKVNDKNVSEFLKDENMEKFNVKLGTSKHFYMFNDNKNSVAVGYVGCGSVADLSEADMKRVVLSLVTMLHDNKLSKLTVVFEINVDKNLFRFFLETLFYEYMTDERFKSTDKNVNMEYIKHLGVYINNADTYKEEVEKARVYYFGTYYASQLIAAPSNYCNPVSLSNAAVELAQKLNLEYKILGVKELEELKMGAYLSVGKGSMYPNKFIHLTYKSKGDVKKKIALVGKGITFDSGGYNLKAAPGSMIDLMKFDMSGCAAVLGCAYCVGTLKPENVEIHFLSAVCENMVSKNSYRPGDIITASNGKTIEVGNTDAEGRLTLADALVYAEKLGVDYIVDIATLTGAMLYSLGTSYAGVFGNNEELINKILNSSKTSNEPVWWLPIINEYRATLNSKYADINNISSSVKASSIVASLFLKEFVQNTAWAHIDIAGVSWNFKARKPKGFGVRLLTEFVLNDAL

[4] = molecular target: T4, Replicative DNA helicase DnaB (Mycobacterium tuberculosis, UniProt P9WMR3); assay: DnaB intein splicing inhibitors, dose response, biochemical, cell-free fluorescence (AID 449749); format: functional
T4 sequence (P9WMR3 whole entry): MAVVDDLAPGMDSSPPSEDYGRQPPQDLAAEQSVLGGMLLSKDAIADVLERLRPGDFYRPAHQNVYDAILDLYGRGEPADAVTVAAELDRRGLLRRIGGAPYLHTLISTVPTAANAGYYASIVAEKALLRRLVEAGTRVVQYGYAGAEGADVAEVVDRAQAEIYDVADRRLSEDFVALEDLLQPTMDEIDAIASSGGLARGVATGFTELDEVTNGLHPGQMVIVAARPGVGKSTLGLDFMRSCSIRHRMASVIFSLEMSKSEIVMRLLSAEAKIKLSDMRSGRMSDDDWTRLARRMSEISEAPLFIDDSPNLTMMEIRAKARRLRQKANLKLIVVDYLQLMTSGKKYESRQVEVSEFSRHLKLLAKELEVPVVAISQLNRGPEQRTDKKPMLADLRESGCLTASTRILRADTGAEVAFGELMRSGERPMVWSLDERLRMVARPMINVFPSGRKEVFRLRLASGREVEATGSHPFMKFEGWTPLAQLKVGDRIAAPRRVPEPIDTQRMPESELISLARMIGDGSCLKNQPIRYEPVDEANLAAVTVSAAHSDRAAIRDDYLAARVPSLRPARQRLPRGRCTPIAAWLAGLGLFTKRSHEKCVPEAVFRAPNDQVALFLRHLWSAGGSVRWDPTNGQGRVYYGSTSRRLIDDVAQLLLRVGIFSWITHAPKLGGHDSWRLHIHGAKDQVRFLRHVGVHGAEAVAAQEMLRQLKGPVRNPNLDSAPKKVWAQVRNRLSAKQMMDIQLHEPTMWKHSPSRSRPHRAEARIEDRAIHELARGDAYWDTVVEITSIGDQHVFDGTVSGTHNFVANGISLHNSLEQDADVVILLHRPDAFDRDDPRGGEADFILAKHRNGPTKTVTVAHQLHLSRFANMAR

Estrogen receptor beta = Estrogen receptor beta (Homo sapiens, UniProt Q92731); assay: blockers of SRC-3 recruitment to ERβ – biochemical, ELISA, streptavidin-HRP readout, orthogonal assay, confirmation (AID 1060)
Estrogen receptor beta, sequence (Q92731 whole entry): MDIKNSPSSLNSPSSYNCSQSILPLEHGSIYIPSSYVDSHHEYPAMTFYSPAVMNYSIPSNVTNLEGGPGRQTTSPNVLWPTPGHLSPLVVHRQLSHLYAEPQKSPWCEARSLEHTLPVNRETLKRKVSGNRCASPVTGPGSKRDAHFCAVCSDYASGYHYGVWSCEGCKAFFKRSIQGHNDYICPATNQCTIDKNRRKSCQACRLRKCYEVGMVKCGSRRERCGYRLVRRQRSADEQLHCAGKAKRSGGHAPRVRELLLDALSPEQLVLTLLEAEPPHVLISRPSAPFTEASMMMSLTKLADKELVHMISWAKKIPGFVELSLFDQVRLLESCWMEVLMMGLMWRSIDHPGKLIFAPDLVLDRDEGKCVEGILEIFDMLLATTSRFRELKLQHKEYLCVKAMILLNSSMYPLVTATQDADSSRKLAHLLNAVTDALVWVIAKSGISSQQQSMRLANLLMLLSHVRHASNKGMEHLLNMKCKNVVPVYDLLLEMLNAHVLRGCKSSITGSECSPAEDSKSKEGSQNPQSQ

Cytochrome P450 3A4 = Cytochrome P450 3A4 (Homo sapiens, UniProt P08684); details: Potency;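 further: confirmatory qHTS run detecting inhibitors and substrates of CYP3A4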
Cytochrome P450 3A4, sequence (P08684 whole entry): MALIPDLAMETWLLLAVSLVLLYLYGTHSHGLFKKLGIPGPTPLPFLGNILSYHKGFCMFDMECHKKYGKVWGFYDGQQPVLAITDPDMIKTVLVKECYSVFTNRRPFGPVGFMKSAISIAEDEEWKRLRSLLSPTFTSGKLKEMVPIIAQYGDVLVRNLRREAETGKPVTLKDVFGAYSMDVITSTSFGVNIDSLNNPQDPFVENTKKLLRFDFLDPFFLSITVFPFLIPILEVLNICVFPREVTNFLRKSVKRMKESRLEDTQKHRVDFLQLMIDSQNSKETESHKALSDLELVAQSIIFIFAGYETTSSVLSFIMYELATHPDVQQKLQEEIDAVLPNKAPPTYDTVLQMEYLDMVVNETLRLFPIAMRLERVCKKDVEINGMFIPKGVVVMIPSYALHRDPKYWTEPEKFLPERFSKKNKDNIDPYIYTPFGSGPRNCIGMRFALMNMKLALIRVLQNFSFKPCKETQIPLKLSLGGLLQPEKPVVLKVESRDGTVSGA

[5] = reduced cellular PGC1a acetyl-lysine signal – cell-based, cherry-picked samples, dose response (AID 720514); format: functional;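 further: potency may reflect raised or lowered acetylation signal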
[6] = toxicity to human hepatoma HepG2 cells – cell-based, cherry-picked samples, cytotoxicity control, dose response (AID 1159577); format: functional
[7] = P. falciparum Dd2 growth inhibitors, dose response, SYBR Green, cherry-picked samples (AID 1159567); format: functional, cell-based
Paired box protein Pax-8 = Paired box protein Pax-8 (Homo sapiens, UniProt Q06710); assay: PAX8 transcriptional activity inhibition in RMG-I – RMG-I cells, luciferase, cherry-pick, dose response (AID 687027); format: functional, cell-based;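 further: luciferase reporter driven by Pax8 target thyroperoxidase promoter measured by SteadyGlo luminescence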
Paired box protein Pax-8, sequence (Q06710 whole entry): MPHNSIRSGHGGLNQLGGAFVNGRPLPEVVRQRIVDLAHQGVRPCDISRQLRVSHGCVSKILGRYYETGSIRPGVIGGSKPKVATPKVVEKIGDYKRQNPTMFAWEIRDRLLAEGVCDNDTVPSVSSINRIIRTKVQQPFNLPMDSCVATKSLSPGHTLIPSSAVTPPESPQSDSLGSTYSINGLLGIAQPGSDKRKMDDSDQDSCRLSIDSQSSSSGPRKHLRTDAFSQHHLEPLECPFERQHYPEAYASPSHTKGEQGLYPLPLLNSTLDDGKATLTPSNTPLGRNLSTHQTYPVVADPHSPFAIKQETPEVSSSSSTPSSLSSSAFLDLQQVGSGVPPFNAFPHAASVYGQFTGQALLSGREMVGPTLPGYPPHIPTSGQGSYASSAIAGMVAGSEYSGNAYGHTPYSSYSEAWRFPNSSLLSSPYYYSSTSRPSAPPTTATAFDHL

[8] = OVCAR-3 cell viability loss – plate reader, dry powder samples, PAX8 inhibitor project, dose response (AID 743044); format: functional, cell-based
[9] = OVCAR8 cell viability loss – plate reader, dry powder samples, PAX8 project, dose response (AID 743197); format: functional, cell-based; details: OVCAR-8
[10] = HEK-293T cell viability reduction – luminescence, B-cell screen hits, cytotoxicity control for BCR NF-kB inhibitor project, dose response (AID 489021); format: functional, cell-based;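 further: HEK-293T cells carrying an NF-kB luciferase reporter; cells exposed to compound for about 14 hours before viability readout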

For `CN(C)C(=O)c1ccc(COc2ccccc2Br)o1`, the CC50 [1] was > 40 µM (active).
With `Cc1sc2ncnc(N)c2c1C` the IC50 [2] was > 20 µM (inactive).
With `Cc1cc(-c2[nH]nc3c2C(c2cccc(O)c2)C(C#N)=C(N)O3)c(C)s1` (configuration not stated) the EC50 (Protein RecA) was 2.65 µM (active), the IC50 [3] was > 100 µM (active) and the IC50 (Leucine aminopeptidase) was 52.8 µM (active). The AC50 [4] was 4.58 µM (active).
With `O=C(Nc1ccc2c(c1)OCO2)c1cc2ncc(Br)cn2n1` the IC50 (Estrogen receptor beta) was < 0.023 µM (not active).
For `COC(=O)c1c(C)cc(OC)cc1O`, the AC50 (Cytochrome P450 3A4) was 39.8 µM (inconclusive).
In the case of `CCC(=O)NC(C)c1cc(Cl)c2ccccc2c1O` (configuration not stated), the IC50 [2] is reported as > 20 µM (inactive).
With `COc1ccnc2c1c(=O)n(Cc1ccc(F)cc1)c(=O)n2C` the IC50 [2] was > 20 µM (inactive).
With `OC[C@H]1[C@@H](c2ccc(C#CC3CCCC3)cc2)[C@@H]2CN(CCC(F)(F)F)CCCCN12` the AC50 [5] was 11 µM (active), the AC50 [6] was 10.5 µM (active) and the AC50 [7] was 0.346 µM (active).
In the case of `O=C(Nc1ccc(C(F)(F)F)cc1)Nc1ccc2c(c1)[C@H]1C[C@@H](CC(=O)N3CCc4ccccc4C3)O[C@H](CO)[C@H]1O2`, the AC50 (Paired box protein Pax-8) is reported as 4.1 µM (active), the AC50 [8] is reported as 23.6 µM (active) and the AC50 [9] is reported as 54 µM (active).
In the case of `CCc1cccc(NC(=O)c2ccc(CNc3c(N4CCCC4)c(=O)c3=O)cc2)c1`, the IC50 [10] is reported as > 80 µM (inactive).
